Values joined by “and” are separate entries in the source; they are usually repeats but may differ in a detail not shown here. Equal entries are not always repeated. Toxic doses and inconclusive results are not listed.
Tested on: AKR/Lw mice, AKR lymphoma ip, median survival T/C
Test: NCI In Vivo Anticancer Drug Screen. Data for tumor model Lymphoma AKR (Transplanted) (intraperitoneal) in AKR/Lw mice
Details: endpoint: median survival time, higher = longer survival
Description: The antitumor activity of compounds was measured in mice bearing transplantable tumors. Survival or tumor size were measured and the results are expressed as the measurement made in the treated group (T) divided by the measurement made in the vehicle treated control group (C). The tumor model used in this assay is Lymphoma AKR (Transplanted) (intraperitoneal) in AKR/Lw mice

[1] = dose: 100.0 mg/kg/injection, schedule: Q01DX001 (ip), vehicle: Klucel (hydroxypropylcellulose) (HPC)
[2] = dose: 200.0 mg/kg/injection, schedule: Q01DX001 (ip), vehicle: Klucel (hydroxypropylcellulose) (HPC)
[3] = dose: 400.0 mg/kg/injection, schedule: Q01DX001 (ip), vehicle: Klucel (hydroxypropylcellulose) (HPC)

For O=P1(N(CCCl)CCCl)NCCCO1 (stereo not given), the T/C (dose: 0.5 mg/kg/injection, schedule: Q01DX015 (ip), vehicle: saline) was 117 % of control, the T/C (dose: 1.0 mg/kg/injection, schedule: Q01DX015 (ip), vehicle: saline) was 108 % of control and the T/C (dose: 1.5 mg/kg/injection, schedule: Q04DX003 (ip), vehicle: saline) was 91 % of control. The T/C (dose: 2.0 mg/kg/injection, schedule: Q01DX015 (ip), vehicle: saline) was 108 % of control, the T/C (dose: 2.0 mg/kg/injection, schedule: Q03HX032 (ip), vehicle: saline) was 119 % of control and the T/C (dose: 3.0 mg/kg/injection, schedule: Q04DX003 (ip), vehicle: saline) was 93 % of control. For the same compound, the T/C (dose: 3.1 mg/kg/injection, schedule: Q01DX009 (ip), vehicle: saline) was 100 % of control and 102 % of control, the T/C (dose: 4.0 mg/kg/injection, schedule: Q03HX032 (ip), vehicle: saline) was 117 % of control and the T/C (dose: 6.0 mg/kg/injection, schedule: Q01DX009 (ip), vehicle: saline) was 97 % of control. For the same compound, the T/C (dose: 6.0 mg/kg/injection, schedule: Q04DX003 (ip), vehicle: saline) was 93 % of control, the T/C (dose: 6.2 mg/kg/injection, schedule: Q04DX003 (ip), vehicle: saline) was 97 % of control and the T/C (dose: 6.25 mg/kg/injection, schedule: Q07DX005 (ip), vehicle: saline) was 112 % of control. For the same compound, the T/C (dose: 7.0 mg/kg/injection, schedule: Q01DX015 (ip), vehicle: saline) was 88 % of control, the T/C (dose: 8.0 mg/kg/injection, schedule: Q03HX032 (ip), vehicle: saline) was 112 % of control and the T/C (dose: 10.0 mg/kg/injection, schedule: Q01DX009 (ip), vehicle: saline) was 110 % of control and 118 % of control. For the same compound, the T/C (dose: 11.0 mg/kg/injection, schedule: Q01DX015 (ip), vehicle: saline) was 100 % of control, the T/C (dose: 12.0 mg/kg/injection, schedule: Q04DX003 (ip), vehicle: saline) was 97 % of control and 105 % of control and the T/C (dose: 12.5 mg/kg/injection, schedule: Q01DX001 (ip), vehicle: saline) was 92 % of control and 104 % of control and 116 % of control. For the same compound, the T/C (dose: 20.0 mg/kg/injection, schedule: Q07DX004 (ip), vehicle: saline) was 120 % of control, the T/C (dose: 24.0 mg/kg/injection, schedule: Q01DX015 (ip), vehicle: saline) was 100 % of control and 117 % of control and the T/C (dose: 25.0 mg/kg/injection, schedule: Q07DX003 (ip), vehicle: saline) was 152 % of control. For the same compound, the T/C (dose: 25.0 mg/kg/injection, schedule: Q10DX002 (ip), vehicle: saline) was 152 % of control, the T/C (dose: 25.0 mg/kg/injection, schedule: Q10DX004 (ip), vehicle: saline) was 119 % of control and the T/C (dose: 25.0 mg/kg/injection, schedule: Q14DX003 (ip), vehicle: saline) was 178 % of control. The T/C (dose: 25.0 mg/kg/injection, schedule: Q14DX004 (ip), vehicle: saline) was 103 % of control, the T/C (dose: 33.0 mg/kg/injection, schedule: Q09DX002 (ip), vehicle: saline) was 188 % of control and the T/C (dose: 37.5 mg/kg/injection, schedule: Q12DX002 (ip), vehicle: saline) was 172 % of control. The T/C (dose: 44.0 mg/kg/injection, schedule: Q07DX004 (ip), vehicle: saline) was 227 % of control, the T/C (dose: 50.0 mg/kg/injection, schedule: Q09DX002 (ip), vehicle: saline) was 160 % of control and 234 % of control (2×) and the T/C (dose: 50.0 mg/kg/injection, schedule: Q10DX002 (ip), vehicle: saline) was 186 % of control. For the same compound, the T/C (dose: 50.0 mg/kg/injection, schedule: Q12DX002 (ip), vehicle: saline) was 164 % of control, the T/C (dose: 50.0 mg/kg/injection, schedule: Q14DX003 (ip), vehicle: saline) was 177 % of control and the T/C (dose: 50.0 mg/kg/injection, schedule: Q14DX004 (ip), vehicle: saline) was 173 % of control. The T/C (dose: 50.0 mg/kg/injection, schedule: Q## X002 (ip), vehicle: saline) was 164 % of control, the T/C (dose: 65.5 mg/kg/injection, schedule: Q04DX003 (ip), vehicle: saline) was 236 % of control and the T/C (dose: 67.0 mg/kg/injection, schedule: Q07DX004 (ip), vehicle: saline) was 232 % of control. The T/C (dose: 67.0 mg/kg/injection, schedule: Q09DX002 (ip), vehicle: saline) was 234 % of control, the T/C (dose: 75.0 mg/kg/injection, schedule: Q01DX001 (ip), vehicle: saline) was 180 % of control and 226 % of control and the T/C (dose: 75.0 mg/kg/injection, schedule: Q01DX001 (ip), vehicle: water) was 153 % of control. The T/C (dose: 75.0 mg/kg/injection, schedule: Q04DX003 (ip), vehicle: saline) was 180 % of control, the T/C (dose: 75.0 mg/kg/injection, schedule: Q07DX003 (ip), vehicle: saline) was 200 % of control and 210 % of control and 231 % of control and the T/C (dose: 75.0 mg/kg/injection, schedule: Q07DX005 (ip), vehicle: saline) was 181 % of control. For the same compound, the T/C (dose: 75.0 mg/kg/injection, schedule: Q12DX002 (ip), vehicle: saline) was 226 % of control, the T/C (dose: 100.0 mg/kg/injection, schedule: Q01DX001 (ip), vehicle: saline with Tween-80) was 154 % of control and the T/C (dose: 100.0 mg/kg/injection, schedule: Q01DX009 (ip), vehicle: saline) was 112 % of control. For the same compound, the T/C (dose: 100.0 mg/kg/injection, schedule: Q07DX004 (ip), vehicle: saline) was 200 % of control, the T/C (dose: 100.0 mg/kg/injection, schedule: Q07DX005 (ip), vehicle: saline) was 95 % of control and the T/C (dose: 100.0 mg/kg/injection, schedule: Q09DX002 (ip), vehicle: saline) was 117 % of control and 228 % of control (2×). For the same compound, the T/C (dose: 100.0 mg/kg/injection, schedule: Q10DX004 (ip), vehicle: saline) was 175 % of control, the T/C (dose: 100.0 mg/kg/injection, schedule: Q14DX003 (ip), vehicle: saline) was 235 % of control and the T/C (dose: 125.0 mg/kg/injection, schedule: Q07DX003 (ip), vehicle: saline) was 105 % of control and 110 % of control. For the same compound, the T/C (dose: 150.0 mg/kg/injection, schedule: Q01DX001 (ip), vehicle: saline with Tween-80) was 179 % of control, the T/C (dose: 150.0 mg/kg/injection, schedule: Q01DX001 (ip), vehicle: water) was 171 % of control and 196 % of control and the T/C (dose: 150.0 mg/kg/injection, schedule: Q07DX005 (ip), vehicle: saline) was 95 % of control. For the same compound, the T/C (dose: 150.0 mg/kg/injection, schedule: Q10DX004 (ip), vehicle: saline) was 209 % of control, the T/C (dose: 200.0 mg/kg/injection, schedule: Q01DX009 (ip), vehicle: saline) was 100 % of control and the T/C (dose: 200.0 mg/kg/injection, schedule: Q09DX002 (ip), vehicle: saline) was 103 % of control. The T/C (dose: 200.0 mg/kg/injection, schedule: Q10DX002 (ip), vehicle: saline) was 114 % of control, the T/C (dose: 300.0 mg/kg/injection, schedule: Q01DX001 (ip), vehicle: water) was 171 % of control and 188 % of control and the T/C (dose: 500.0 mg/kg/injection, schedule: Q01DX001 (ip), vehicle: saline) was 100 % of control.

NC(=O)NO was tested, and the T/C (dose: 15.6 mg/kg/injection, schedule: Q06HX012 (ip), vehicle: saline) was 93 % of control, the T/C (dose: 15.6 mg/kg/injection, schedule: Q06HX016 (ip), vehicle: saline) was 96 % of control and the T/C (dose: 25.0 mg/kg/injection, schedule: Q06HX012 (ip), vehicle: saline) was 100 % of control. For the same compound, the T/C (dose: 31.25 mg/kg/injection, schedule: Q06HX012 (ip), vehicle: saline) was 96 % of control, the T/C (dose: 50.0 mg/kg/injection, schedule: Q01DX009 (ip), vehicle: saline) was 94 % of control and the T/C (dose: 50.0 mg/kg/injection, schedule: Q06HX012 (ip), vehicle: saline) was 100 % of control. The T/C (dose: 62.5 mg/kg/injection, schedule: Q06HX004 (ip), vehicle: saline) was 92 % of control and 100 % of control, the T/C (dose: 62.5 mg/kg/injection, schedule: Q06HX008 (ip), vehicle: saline) was 93 % of control and the T/C (dose: 62.5 mg/kg/injection, schedule: Q06HX012 (ip), vehicle: saline) was 93 % of control. For the same compound, the T/C (dose: 62.5 mg/kg/injection, schedule: Q06HX016 (ip), vehicle: saline) was 100 % of control, the T/C (dose: 75.0 mg/kg/injection, schedule: Q06HX012 (ip), vehicle: saline) was 96 % of control and the T/C (dose: 100.0 mg/kg/injection, schedule: Q06HX008 (ip), vehicle: saline) was 92 % of control. For the same compound, the T/C (dose: 100.0 mg/kg/injection, schedule: Q06HX012 (ip), vehicle: saline) was 88 % of control.

CCOC(=O)/C(C(C)=O)=C(/O)c1ccc(OC(F)(F)C(F)Cl)cc1OC(F)(F)C(F)Cl.CCOC(=O)/C(C(C)=O)=C(/O)c1ccc(OC(F)(F)C(F)Cl)cc1OC(F)(F)C(F)Cl.[Cu] (stereo not given) was tested, and the T/C [1] was 100 % of control and the T/C [2] was 90 % of control.

For CCCCCCCC(=O)NCCCC, the T/C [1] was 96 % of control, the T/C [2] was 96 % of control and the T/C [3] was 92 % of control.

With COc1cc2ccc(CCNCc3ccccc3)cc2cc1OC the T/C (dose: 25.0 mg/kg/injection, schedule: Q04DX003 (ip), vehicle: saline sonified) was 92 % of control, the T/C (dose: 50.0 mg/kg/injection, schedule: Q04DX003 (ip), vehicle: saline sonified) was 95 % of control and the T/C (dose: 100.0 mg/kg/injection, schedule: Q01DX001 (ip), vehicle: saline) was 116 % of control. The T/C (dose: 100.0 mg/kg/injection, schedule: Q04DX003 (ip), vehicle: saline sonified) was 92 % of control.

With COC(=O)CC(=O)c1ccc(C)cc1 the T/C [1] was 100 % of control, the T/C [2] was 103 % of control and the T/C [3] was 120 % of control.

Reference: PubChem BioAssay AID190 (DTP/NCI, 2004)
